# Laboratory results reported in patent US20120177742A1, “NANOPARTICLE AND SURFACE-MODIFIED PARTICULATE COATINGS, COATED BALLOONS, AND METHODS THEREFORE” (MICELL TECHNOLOGIES, INC., priority 2010, published 2012).
# “And” between values parts separate entries of the source, which are not always exact repeats. Equal entries are not always repeated. Where two headings read alike, the source gives them in different places. Marks after values point to notes of the source that are not given here.
# Tests used:
# [1] = Rapamycin coating affinity testing: distribution between solid and liquid phases with surfactant in water (UV-Vis); format: physicochemical; settings: for Cal. Rapa (Sediment) / Cal. Rapa (Supernate): calculated from UV-Vis absorbance; for Cal. Rapa (Sediment): in mg (unit assumed); for Cal. Rapa (Supernate): unit assumed; for total (% original) / total (% of original): percent recovery of initial rapamycin loading
# Description: One method of applying a positive surface charge to the coating is to add DMAB to the coating such that it is on its surface, at least. […] The coating is then sintered according to the RESS process. […] Care should be taken in certain embodiments to optimize the DMAB's application to the balloon and to handle the balloon thereafter to keep the DMAB from washing off. […] The initial mass of rapamycin is shown in the column labeled “Original rapa.” The supernatant (liquid phase) contains the material of interest as it is drug particles coated with the surfactant modifier. The values presented in the columns labeled “Cal. Rapa” are calculated from the UV-Vis absorbance spectrum of the sediment or supernatant respectively. The ratio of these two values determined the partition coefficient between the sediment and supernatant (reported in the column labeled “ratio”).
# The initial mass of rapamycin is shown in the column labeled “Original rapa.” The supernatant (liquid phase) contains the material of interest as it is drug particles coated with the surfactant modifier. The values presented in the columns labeled “Cal. Rapa” are calculated from the UV-Vis absorbance spectrum of the sediment or supernatant respectively. The ratio of these two values determined the partition coefficient between the sediment and supernatant (reported in the column labeled “ratio”).
# [2] = Sirolimus concentration in rabbit blood after inflation of two coated balloons per animal; format: in vivo
# Description: After a 2d balloon inflation, blood samples were taken at the given time points (0 h, 6 h, 24 h).
# [3] = Study 1 balloons left uninflated in rabbit aorta, exposed to blood flow: drug lost
# in vivo = settings: rabbit, iliac artery wall, other: coated balloon catheter deployed in iliac arteries
# Description: The coated balloons were sterilized and then used in a rabbit animal study. The balloons were deployed at the target sites (iliac arteries) in the rabbits in the study, two balloons per animal. […] The amount of drug per tissue was determined using a LC-MS test method. Liquid chromatography-mass spectrometry (LC-MS) was used to determine the amount of drug per tissue. Prior to LC-MS, artery samples were homogenized using an Omni hand held probe (1:99 w:v in 80:20 MeOH:2 mM Ammonium Acetate in water with 0.1% Formic Acid). The density of the artery was assumed to be 1 g/mL
# Balloons were inflated for a minimum of one minute. […] The estimated time the artery was exposed to blood flow was also tracked, and refers to the amount of time after the balloon was inflated.
# [4] = 1:1 Surfactant to Rapa (w/w), 10x dilution in water
# [5] = 1:1 Surfactant to Rapa, 10x dilution
# [6] = 1:1 Surfactant to Rapa, 10x dilution, partition between supernatant and sediment
# [7] = 1:10 Surfactant to Rapa (w/w), 100x dilution in water
# [8] = 1:10 Surfactant to Rapa, 100x dilution
# [9] = 10:1 Surfactant to Rapa (w/w), 6x dilution in water
# [10] = 10:1 Surfactant to Rapa, 6x dilution
Molecule,"Sediment wt [1, 4]","Cal. Rapa (Sediment) [1, 5]","Cal. Rapa (Supernate) [1, 5]","ratio super/sed [1, 6]","total (% original) [1, 5]","Sediment wt [1, 7]","ratio super/sed [1, 8]","Cal. Rapa (Sediment) [1, 8]","Cal. Rapa (Supernate) [1, 8]","total (% of original) [1, 8]","Sediment wt [1, 9]","ratio super/sed [1, 10]","Cal. Rapa (Sediment) [1, 10]","Cal. Rapa (Supernate) [1, 10]","total (% of original) [1, 10]",also measured
CCCCCCCCCCCCCCCC[N+](C)(C)CC.[Br-] [Ethylhexadecyldimethylammonium Bromide],3.85 mg,1.37,0.33 mg,0.24,89.5%,8.6 mg,0.15,6.86,1.05 mg,80.2%,3.21 mg,31.50,0.04*,1.26 mg,59.6%,
"CCCCCCCCCCCC[N+](C)(C)CCCCCCCCCCCC.[Br-] [DMAB, didodecyldimethylammonium bromide]",2.2 mg,1.23,0.64 mg,0.52,98.4%,8.52 mg,0.06,7.23,0.4 mg,79.5%,3.73 mg,0.83,1.23,1.02 mg,107.1%,
"Poly-L-Arginine (average or nominal MW of about 5,000 to about 15,000 Da) [Poly Arginine 5,000-15,000]",3.72 mg,1.24,0.3 mg,0.24,72.6%,6.5 mg,0.21,5.36,1.15 mg,66.2%,5.11 mg,0.46,1.1,0.51 mg,84.3%,
Poly Histidine,7.21 mg,1.61,0.32 mg,0.20,92.8%,7.9 mg,0.18,7.06,1.29 mg,78.8%,2.85 mg,0.30,0.94,0.28 mg,65.6%,
"Poly-L-Arginine (average or nominal MW of about 70,000 Da) [Poly Arginine 70,000]",11.7 mg,1.49,0.73 mg,0.49,100.9%,7.9 mg,0.15,6.95,1.01 mg,77.9%,2.81 mg,0.18,1.18,0.21 mg,72.0%,
CCCC[N+](CCCC)(CCCC)CCCC.[I-] [Tetrabutylammonium iodide],2.1 mg,1.97,0.6 mg,0.30,114.2%,,,,,,2.05 mg,0.39,1.07,0.42 mg,80.1%,
CO[C@H]1C[C@@H]2CC[C@@H](C)[C@@](O)(O2)C(=O)C(=O)N2CCCC[C@H]2C(=O)O[C@H]([C@H](C)C[C@@H]2CC[C@@H](O)[C@H](OC)C2)CC(=O)[C@H](C)/C=C(\C)[C@@H](O)[C@@H](OC)C(=O)[C@H](C)C[C@H](C)/C=C/C=C/C=C/1C [sirolimus],,,,,,,,,,,,,,,,"Est. Total Sirolimus in Blood Normalized to Human ([2]; 6 hr, based on 5 L of blood in the average human): 0.08 ng/mL and 0.07 ng/mL and 0.06 ng/mL; Est. Total Sirolimus in Blood ([2]; 6 hr, based on 56 mL per kg in rabbits): 0.5 µg and 0.4 µg and 0.3 µg; time within which drug released from balloon and/or artery was cleared from the blood ([2]; rabbit, after balloon inflation): ≤ 24 h; concentration at 0 h ([2]; rabbit, blood, other: coated balloon catheters inflated in iliac arteries, rabbit blood, 0 Hr, two coated balloons per animal, single animals and Average, read-out: Post-Inflation Conc.): 8.35 ng/mL; concentration at 6 h ([2]; rabbit, blood, other: coated balloon catheters inflated in iliac arteries, rabbit blood, 6 hr, two coated balloons per animal, single animals and Average, read-out: Post-Inflation Conc.): 2.82 ng/mL; concentration at 6 h ([2]; rabbit, whole blood, other: inflation of drug-coated balloons in iliac arteries, Est. Total Sirolimus in Blood Normalized to Human, 6 hr, based on 5 L of blood in the average human): 0.1 ng/mL; sirolimus removed from balloons before inflation ([3]; Study 1 balloons): 65.6±1.3%; average percent drug (sirolimus) lost ([3]; four Study 1 balloons left uninflated two minutes in rabbit aorta, exposed to blood flow, based on batch average UV-Vis): 65.6%; Total Sirolimus per Artery (Denuded Arteries, rabbit iliac, 0 h, artery exposed to blood flow 5 or 10 min, single arteries and Average): 7.36 µg and 4.62 µg and 5.75 µg and 4.46 µg and 3.92 µg and 4.27 µg; drug (sirolimus) transferred to artery (Study 1 balloons): 1-5%; sirolimus washed away into circulation (Study 1 balloons, 0 h): 5.4 ± 2.3 µg; concentration at 0 h (in vivo): 197000 ± 85300 ng/g"
"Poly-L-Lysine (average or nominal MW of about 28,200 Da) [Poly Lysin 28,200]",4.89 mg,1.36,0.35 mg,0.26,85.9%,7.4 mg,0.11,7,0.74 mg,80.2%,4.3 mg,0.11,1.2,0.13 mg,63.0%,
"Poly-L-Lysine (average or nominal MW of about 67,000 Da) [Poly Lisine 66,700]",1.85 mg,1.43,0.33 mg,0.23,93.6%,,,,,,2.9 mg,0.10,1.2,0.12 mg,55.2%,
"CCCCCCCCCCCCCC[N+](C)(C)CCCCCCCCCCCCCC.[Br-] [Dimethylditetradecylammonium bromide, Dimethylditetradecyl Ammonium bromide]",2.28 mg,1.9,0.59 mg,0.31,113.2%,,,,,,1.9 mg,1.42,0.85,1.21 mg,110.2%,
"CCCCCCCCCCCC[N+](C)(C)C.[Br-] [Dodecyltrimethylammonium Bromide, Dodecyltrimethyl Ammonium Bromide]",1.99 mg,1.65,0.5 mg,0.30,108.6%,7.7 mg,0.20,6.6,1.33 mg,81.9%,2.56 mg,0.65,1.2,0.78 mg,87.6%,
"CCCCCCCCCCCC[N+](CCCCCCCCCCCC)(CCCCCCCCCCCC)CCCCCCCCCCCC.[Br-] [Tetradodecylammoniumbromid, Tetradodecylammonium bromide]",6.31 mg,1.51,0.25 mg,0.17,88.0%,,,,,,3.6 mg,0.31,1.24,0.39 mg,73.1%,
